# Measured values taken from patent publication US10118928B2, “Treatment of H. pylori infections using MTAN inhibitors” (ALBERT EINSTEIN COLLEGE OF MEDICINE, INC., priority 2014, dated 2018).
# Tested on: H. pylori
# Test: MIC90 against H. pylori, growth on tryptic soy agar with 5% horse blood
# Type: cell-based
# Set-up: unit not given here
# Details: Table 1; 72 h, microaerophilic, 37° C.
# Experimental: Bacterial Growth. H. pylori were grown for 72 hours under microaerophilic condition (5% O2, 10% CO2 and 85% N2) at 37° C. on tryptic soy agar with 5% horse blood. To determine the MIC values, the test substance was added to the gel solution right before pouring. To compare the zones of inhibition, specific antibiotics were added to the center of disc after spreading H. pylori, and then H. pylori was allowed to grow for 72 hours under microaerophilic condition at 37° C.
row,Compound,MIC90 against H. pylori
1,CCCCC[C@@H](CO)NCc1c[nH]c2c(N)ncnc12,8
2,CCCC[C@@H](CO)NCc1c[nH]c2c(N)ncnc12,16
3,CSC[C@H](CO)NCc1c[nH]c2c(N)ncnc12,>80
4,Nc1ncnc2c(CN[C@H](CO)CSCc3ccccc3)c[nH]c12,>80
5,Nc1ncnc2c(CN[C@H](CO)c3ccccc3)c[nH]c12,>80
6,CCCCCCCSC[C@@H](CO)NCc1c[nH]c2c(N)ncnc12,80
7,Nc1ncnc2c(CN[C@H](CO)CSc3ccc(Cl)cc3)c[nH]c12,>80
8,CCC[C@@H](CO)NCc1c[nH]c2c(N)ncnc12,40
9,CC[C@H](C)[C@@H](CO)NCc1c[nH]c2c(N)ncnc12,>80
10,Nc1ncnc2c(CN[C@H](CO)Cc3c[nH]cn3)c[nH]c12,>80
11,C[C@@H](CO)NCc1c[nH]c2c(N)ncnc12,>80
12,CC(C)C[C@@H](CO)NCc1c[nH]c2c(N)ncnc12,>80
13,CSC[C@H](O)[C@H](CO)NCc1c[nH]c2c(N)ncnc12,>80
14,CC[C@@H](CO)NCc1c[nH]c2c(N)ncnc12,>80
15,CCCCSC[C@@H](CO)NCc1c[nH]c2c(N)ncnc12,16
16,CC(C)[C@@H](CO)NCc1c[nH]c2c(N)ncnc12,>80
17,CCCCCCCCC[C@@H](CO)NCc1c[nH]c2c(N)ncnc12,80
18,CCCCCC[C@@H](CO)NCc1c[nH]c2c(N)ncnc12,8
19,CSC[C@@H](CO)NCc1c[nH]c2c(N)ncnc12,>80
20,Nc1ncnc2c(CN[C@H](CO)CSc3cnccn3)c[nH]c12,8
21,CSC[C@@H](O)[C@@H](CO)NCc1c[nH]c2c(N)ncnc12,>80
22,CCCC[C@H](CO)NCc1c[nH]c2c(N)ncnc12,>80

# Same assay, conditions: Table 2; 72 h, microaerophilic, 37° C.
row,Compound,MIC90 against H. pylori
1,Nc1ncnc2c(CNCCO)c[nH]c12,>80
2,CCCCCCCCNCc1c[nH]c2c(N)ncnc12,>80
